From patent US20030100550A1, “Carboxamide diazepin derivatives, preparation method, use as medicines, pharmaceutical compositions and use thereof” (priority 2002, published 2003)
Like-named read-outs stand apart in the source and are kept apart here.

Biological target: T1, Cathepsin K (Homo sapiens, UniProt P43235)
T1 sequence (P43235 115-329): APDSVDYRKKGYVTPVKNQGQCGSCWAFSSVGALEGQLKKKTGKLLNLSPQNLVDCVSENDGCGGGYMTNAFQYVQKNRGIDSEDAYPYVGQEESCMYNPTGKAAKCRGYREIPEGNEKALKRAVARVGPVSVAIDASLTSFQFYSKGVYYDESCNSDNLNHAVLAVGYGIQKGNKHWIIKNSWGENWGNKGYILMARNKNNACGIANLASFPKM
Experiment: Study of Cathepsin K inhibition (fluorescence, Z-Val-arg-AMC)
Format: biochemical
Experimental: Study of Cathepsin K Inhibition:
The products to be tested (10 mM) are diluted to […] in DMSO and distributed into Nunc polystyrene 96 well plates at a rate of 2 μl per well. Column 12 of the plate is reserved for the controls and therefore receives […] of DMSO (without products) per well. The plates are stored at −80° C. and thawed on the day of the experiment.
The products are diluted to 50 μM by adding 38 μl of reaction buffer: sodium acetate 100 mM, EDTA 5 mM, DTT […] pH 5.5. The addition as well as all the operations by pipette are carried out with a CybiWell 96 tip pipette. After mixing the solutions, each product is transferred into 2 wells (duplicates) of a Greiner black 384 well plate at a rate of 10 μl per well. Two 96-well plates can therefore be tested in a 384-well plate.
A solution of substrate at 50 μM, Z-Val-arg-AMC (Calbiochem), is prepared in the reaction buffer. The substrate, is then distributed into all the wells of the 384-well plate (20 μl per well).
A solution of Cathepsin K at 12.5 ng/ml is prepared in the reaction buffer and distributed into all the wells of the 384-well plate (20 μl per well) except for the 16 wells serving as 100% inhibition controls (column 23 and 24, lines I to P) which receive 20 μl of enzyme-free buffer.
The plates are then incubated 2H at ambient temperature, then read on Fluoroskan (Labsystems): excitation 390 nm; emission 460 nm
The final concentrations of each of the reagents are: products 10 μM, substrate 20 μM, enzyme 5 ng/ml.
The % inhibition for each of the products is calculated by using points at 0 and 100% inhibition of each plate as references. The products presenting a significant inhibition are then retested on a range of concentrations from 50 to 0.5 μM to determine an IC50.

[1] = substrate Z-Val-arg-AMC 20 μM, enzyme 5 ng/ml, 2H at ambient temperature, read-out: Cathepsin K IC50

Row | IC50 [1] [µM] | SMILES | also measured
1 | 5 | C=CCOC(=O)CC[C@H](NC(=O)[C@@H]1CCCN2C(=O)CC[C@H](NC(=O)C(C)C)C(=O)N12)C(=O)C=[N+]=[N-] [Example 38, (2-propenyl)(4S)6-diazo-4-[[[(1S,9S)-9-[(2-methyl-1-oxo-propyl)amino]-octahydro-6,10-dioxo-6H-pyridazino[1,2-a][1,2]diazepine-1-yl]carbonyl]amino]-5-oxo-hexanoate] | –
2 | 8 | C[C@H](NC(=O)[C@@H]1CCCN2C(=O)CC[C@H](NC(=O)Nc3ccc(Oc4ccccc4)cc3)C(=O)N12)C(=O)C=[N+]=[N-] [Example 171, 9-[(9S)-[[(4-phenoxyphenyl)amino]carbonyl]amino]-N-((2S)-4-diazo-3-oxo-2-butyl)-octahydro-6,10-dioxo-6H-(1S)-pyridazino[1,2-a][1,2]diazepine-1-carboxamide] | –
3 | 0.9 | C=CCOC(=O)CC[C@H](NC(=O)[C@@H]1CCCN2C(=O)CC[C@H](NS(C)(=O)=O)C(=O)N12)C(=O)C=[N+]=[N-] [Example 45, (2-propenyl)(4S)6-diazo-4-[[[(1S,9S)-9-[(methylsulphonyl)amino]-octahydro-6,10-dioxo-6H-pyridazino[1,2-a][l,2]diazepine-1-yl]carbonyl]amino]-5-oxo-hexanoate] | –
4 | 20 | O=C(Nc1ccc(Oc2ccccc2)cc1)N[C@H]1CCC(=O)N2CCC[C@@H](C(=O)N[C@@H](Cc3ccccc3)C(=O)CN3CCC(Cc4ccccc4)CC3)N2C1=O [Example 218, 9-[(9S)-[[(4-phenoxyphenyl)amino]carbonyl]amino]-N-[(2S)-4-[(4-phenylmethyl)-1-piperidinyl]-1-phenyl-3-oxo-2-butyl]-octahydro-6,10-dioxo-6H-(1S)-pyridazino[1,2-a][1,2]diazepine-1-carboxamide] | –
5 | 20 | [N-]=[N+]=CC(=O)[C@H](Cc1ccccc1)NC(=O)[C@@H]1CCCN2C(=O)CC[C@H](NC(=O)NCCc3cccs3)C(=O)N12 [Example 162] | –
6 | 10 | CC(C)C[C@H](NC(=O)[C@@H]1CCCN2C(=O)CC[C@H](NS(=O)(=O)c3ccc4ccccc4c3)C(=O)N12)C(=O)C=[N+]=[N-] [Example 348, 9-[(9S)-[(2-naphthalenyl)sulphonyl]amino]-N-((3S)-1-diazo-5-methyl-2-oxo-3-hexyl)-octahydro-6,10-dioxo-6H-(1S)-pyridazino[1,2-a][1,2]diazepine-1-carboxamide] | –
7 | 8 | CC(C)C[C@H](NC(=O)[C@@H]1CCCN2C(=O)CC[C@H](NC(=O)c3ccco3)C(=O)N12)C(=O)C=[N+]=[N-] [Example 341, 9-[(9S)-[(2-furanyl)carbonyl]amino]-N-((3S)-1-diazo-5-methyl-2-oxo-3-hexyl)-octahydro-6,10-dioxo-6H-(1S)-pyridazino[1,2-a][1,2]diazepine-1-carboxamide] | –
8 | 5 | C=CCOC(=O)CC[C@H](NC(=O)[C@@H]1CCCN2C(=O)CC[C@H](NS(=O)(=O)c3ccc4ccccc4c3)C(=O)N12)C(=O)C=[N+]=[N-] [Example 47, (2-propenyl)(4S)6-diazo-4-[[[(1S,9S)-9-[[(2-naphthalenyl)sulphonyl]amino]-octahydro-6,10-dioxo-6H-pyridazino[1,2-a][1,2]diazepine-1-yl]carbonyl]amino]-5-oxo-hexanoate] | –
9 | 1.8 | C=CCOC(=O)CC[C@H](NC(=O)[C@@H]1CCCN2C(=O)CC[C@H](NC(=O)c3ccco3)C(=O)N12)C(=O)C=[N+]=[N-] [Example 40, (2-propenyl)(4S)6-diazo-4-[[[(1S,9S)-9-[[(2-furanyl)carbonyl]amino]-octahydro-6,10-dioxo-6H-pyridazino[1,2-a][1,2]diazepine-1-yl]carbonyl]amino]-5-oxo-hexanoate] | –
10 | 14 | CC(C)C[C@H](NC(=O)[C@@H]1CCCN2C(=O)CC[C@H](NC(=O)NC3CCCCC3)C(=O)N12)C(=O)C=[N+]=[N-] [Example 343, 9-[(9S)-[(cyclohexylamino)carbonyl]amino]-N-((3S)-1-diazo-5-methyl-2-oxo-3-hexyl)-octahydro-6,10-dioxo-6H-(1S)-pyridazino[1,2-a][1,2]diazepine-1-carboxamide] | –
11 | 20 | C=CCOC(=O)CC[C@H](NC(=O)[C@@H]1CCCN2C(=O)CC[C@H](NS(=O)(=O)c3ccc(C(F)(F)F)cc3)C(=O)N12)C(=O)CN1CCN(CC(=O)N2CCCC2)CC1 [Example 107] | –
12 | 7 | COc1cccc(C(=O)N[C@H]2CCC(=O)N3CCC[C@@H](C(=O)N[C@@H](CC(C)C)C(=O)C=[N+]=[N-])N3C2=O)c1 [Example 340, 9-[(9S)-(3-methoxybenzoyl)amino]-N-((3S)-1-diazo-5-methyl-2-oxo-3-hexyl)-octahydro-6,10-dioxo-6H-(1S)-pyridazino[1,2-a][1,2]diazepine-1-carboxamide] | –
13 | 4 | C=CCOC(=O)CC[C@H](NC(=O)[C@@H]1CCCN2C(=O)CC[C@H](NC(=O)NC3CCCCC3)C(=O)N12)C(=O)C=[N+]=[N-] [Example 42, (2-propenyl)(4S)6-diazo-4-[[[(1S,9S)-9-[[(cyclohexylamino)carbonyl]amino]-octahydro-6,10-dioxo-6H-pyridazino[1,2-a][1,2]diazepine-1-yl]carbonyl]amino]-5-oxo-hexanoate] | –
14 | 10 | CC(C)C[C@H](NC(=O)[C@@H]1CCCN2C(=O)CC[C@H](NC(=O)C(C)C)C(=O)N12)C(=O)C=[N+]=[N-] [Example 339, 9-[(9S)-(2-methyl-1-oxo-propyl)amino]-N-((3S)-1-diazo-5-methyl-2-oxo-3-hexyl)-octahydro-6,10-dioxo-6H-(1S)-pyridazino[1,2-a][1,2]diazepine-1-carboxamide] | –
15 | 6 | CC(C)C[C@H](NC(=O)[C@@H]1CCCN2C(=O)CC[C@H](NS(C)(=O)=O)C(=O)N12)C(=O)C=[N+]=[N-] [Example 346, 9-[(9S)-(methylsulphonyl)amino]-N-((3S)-1-diazo-5-methyl-2-oxo-3-hexyl)-octahydro-6,10-dioxo-6H-(1S)-pyridazino[1,2-a][1,2]diazepine-1-carboxamide] | –
16 | 6 | C=CCOC(=O)CC[C@H](NC(=O)[C@@H]1CCCN2C(=O)CC[C@H](NS(=O)(=O)c3ccc(C(F)(F)F)cc3)C(=O)N12)C(=O)C=[N+]=[N-] [Example 46, (2-propenyl)(4S)6-diazo-4-[[[(1S,9S)-9-[[[4-(trifluoromethyl)phenyl]sulphonyl]amino]-octahydro-6,10-dioxo-6H-pyridazino[1,2-a][1,2]diazepine-1-yl]carbonyl]amino]-5-oxo-hexanoate] | –
17 | – | C=CCOC(=O)CC[C@H](NC(=O)[C@@H]1CCCN2C(=O)CC[C@H](NS(=O)(=O)c3ccc4ccccc4c3)C(=O)N12)C(=O)CN1CCN(CC(=O)N2CCCC2)CC1 [Example 117] | IC50: 7 µM
18 | 3 | C=CCOC(=O)CC[C@H](NC(=O)[C@@H]1CCCN2C(=O)CC[C@H](NC(=O)c3cccc(OC)c3)C(=O)N12)C(=O)C=[N+]=[N-] [Example 39, (2-propenyl)(4S)6-diazo-4-[[[(1S,9S)-9-[(3-methoxybenzoyl)amino]-octahydro-6,10-dioxo-6H-pyridazino[1,2-a][1,2]diazepine-1-yl]carbonyl]amino]-5-oxo-hexanoate] | –
19 | 5 | CC(C)C[C@H](NC(=O)[C@@H]1CCCN2C(=O)CC[C@H](NC(=O)Nc3ccc(Oc4ccccc4)cc3)C(=O)N12)C(=O)C=[N+]=[N-] [Example 344, 9-[(9S)-[[(4-phenoxyphenyl)amino]carbonyl]amino]-N-((3S)-1-diazo-5-methyl-2-oxo-3-hexyl)-octahydro-6,10-dioxo-6H-(1S)-pyridazino[1,2-a][1,2]diazepine-1-carboxamide] | –
20 | 20 | [N-]=[N+]=CC(=O)[C@H](Cc1ccccc1)NC(=O)[C@@H]1CCCN2C(=O)CC[C@H](NS(=O)(=O)c3ccc4ccccc4c3)C(=O)N12 [Example 165, 9-[(9S)-[(2-naphthalenyl)sulphonyl]amino]-N-( (2S)-4-diazo-1-phenyl-3-oxo-2-butyl)-octahydro-6,10-dioxo-6H-(1S)-pyridazino[1,2-a][1,2]diazepine-1-carboxamide] | –
21 | 29 | C=CCOC(=O)CCC(NC(=O)C1CCCN2C(=O)CCC(NC(=O)NCCc3cccs3)C(=O)N12)C(=O)CSc1nnnn1-c1ccccc1 [Example 138, (2-propenyl)(4S)6-[(1-phenyl-1H-tetrazol-5-yl)thio]-4-[[[(1S,9S)-^9-[[[[^2-(thien-2-yl)-ethyl]amino]carbonyl]amino]-octahydro-6,10-dioxo-6H-pyridazino[1,2-a][1,2]diazepine-1-yl]carbonyl]amino]-5-oxo-hexanoate] | –

Row | SMILES | IC50 [1] [µM] | also measured
22 | C=CCOC(=O)CC[C@H](NC(=O)[C@@H]1CCCN2C(=O)CCC[C@H](NC(=O)Nc3ccc(Oc4ccccc4)cc3)C(=O)N12)C(=O)COC(C)=O [Example 133] | 20 | Cathepsin K, percentage in parentheses beside IC50 value (% inhibition) (printed beside 20 μM, meaning not explained): 25%
